Reference: patent publication US20250154188A1, “C-GLYCOSIDES AS ANTI-INFLAMMATORY AGENTS” (UNIVERSITY OF PITTSBURGH - OF THE COMMONWEALTH SYSTEM OF …, priority 2022, published 2025)

Experiments:
mice with NEC [1] = assay: Mouse NEC model, ileal inflammation marker mRNA (qRT-PCR); format: in vivo; settings: neonatal mice, oral gavage 10 mg per kg body weight per day during NEC induction; FIG. 3-7
Excerpt: Mouse NEC model. Experimental NEC was induced in a well validated and reproducible model in 7-day-old mice of either gender, which were randomly divided into control and test groups, by gavage feeding newborn mice with formula containing Similac Advance infant formula (Abbott Nutrition): Esbilac (PetAg) canine milk replacer, 2:1 ratio, which was supplemented with enteric bacteria made from a stock created from a specimen obtained from an infant with surgical NEC five times per day. Additionally, the mice were subjected to hypoxia (5% O2-95% N2) for 10 min in a hypoxia chamber (Billups-Rothenberg) twice daily for 4 days. The C34 analogues were administered by oral gavage during the induction of NEC at the dose of 10 mg per kg body weight per day. […]
RNA isolation, cDNA synthesis and qPCR. Total RNA was isolated using the RNeasy mini kit (Qiagen) and complementary DNA was synthesized from 0.5 μg RNA using QuantiTect Reverse Transcription kit (Qiagen) following the manufacturer's protocols. The mRNA quantification was performed on the Bio-Rad CFX96 Real-Time System (Bio-Rad) using iTaq™ universal SYBR® Green supermix (Bio-Rad) and Bio-Rad CFX Manager 3.1 software was used to collect data from qRT-PCR. […]
Statistical Analysis. Transcript levels for inflammatory biomarkers were assessed by performing a one-way ANOVA statistical analysis followed by multiple comparison. […]

mice with NEC [2] = assay: Mouse NEC model, H&E staining of ileal tissue sections; format: in vivo; settings: oral gavage 10 mg per kg body weight per day, FIG. 13
Excerpt: Mouse NEC model. Experimental NEC was induced in a well validated and reproducible model in 7-day-old mice of either gender, which were randomly divided into control and test groups, by gavage feeding newborn mice with formula containing Similac Advance infant formula (Abbott Nutrition): Esbilac (PetAg) canine milk replacer, 2:1 ratio, which was supplemented with enteric bacteria made from a stock created from a specimen obtained from an infant with surgical NEC five times per day. Additionally, the mice were subjected to hypoxia (5% O2-95% N2) for 10 min in a hypoxia chamber (Billups-Rothenberg) twice daily for 4 days. The C34 analogues were administered by oral gavage during the induction of NEC at the dose of 10 mg per kg body weight per day. Age-matched breast milk-fed mouse pups were used as non-NEC controls. The relative mRNA expression levels of Toll-like receptor 4 (Tlr4) (FIG. 3), interleukin 6 (Il6) (FIG. 4), interleukin 1 beta (Il1b) (FIG. 5), tumor necrosis factor (Tnf) (FIG. 6) and lipocalin 2 (Lcn2) (FIG. 7) were shown.
Hematoxylin and eosin (H&E) staining. […]

## CC(C)CC1OC(COC(=O)CC(C)(C)C)C(OC(=O)CC(C)(C)C)C(OC(=O)CC(C)(C)C)C1OC(=O)CC(C)(C)C (centres unmarked) [Compound C281]
Mice with NEC [1]
  necrotizing enterocolitis inflammation markers Tlr4, Il6, Il1b, Tnf, Lcn2 (relative mRNA expression in ileum): robust response
Mice with NEC [2]
  tissue architecture of the intestinal lining (H&E): preserve the tissue architecture of the intestinal lining
